In data set [1] the test system is D2 family of dopamine receptors. The settings on record: cited from earlier work.
Data set [2] has as its system patients with amyotrophic lateral sclerosis (ALS). To be noted: 30 mg/day for up to 8 weeks. The procedure: Phase I clinical studies with R(+) pramipexole were conducted in patients with amyotrophic lateral sclerosis (ALS), a fatal adult neurodegenerative disease arising from the loss of motor nerve cells. […] These reports included such things as regaining the ability to speak coherently, the ability to climb stairs again, and improved motor skills in their extremities, i.e. hands and/or fingers.

Data set [3] concerns mitochondrial transition pore (MTP). To be noted: induced by MPP+ and other stimuli; cited from earlier work.
For data set [4], the system named is oxidative stress produced by MPP+ (ETC complex I inhibitor). To be noted: both in vitro and in vivo; cited from earlier work.
Data set [5] deals with dopamine neurons (MPTP toxicity). The settings on record: cellular and animal models of increased oxidative stress, including MPTP toxicity to dopamine neurons; cited from earlier work.

Consider 2 compounds from patent US20130116292A1, “NEURORESTORATION WITH R(+) PRAMIPEXOLE” (University of Virginia Patent Foundation, priority 2005, published 2013).

For the compound `CCCN[C@@H]1CCc2nc(N)sc2C1` [R(+) pramipexole, R-(+)-2-amino-4,5,6,7-tetrahydro-6-propylaminobenzathiazole], the “stability in aqueous solutions” value is given as “stable in aqueous solutions”. The dopamine agonist activity entry in data set [1] (Schneider and Mierau, J. Med. Chem. 1987) was “very little”. Further, the “patients reporting improvements in motor function” value in data set [2] is “approximately half the patients”.

For the compound `CCCN[C@H]1CCc2nc(N)sc2C1` [S(−) PPX], the “agonism of the D2 family of dopamine receptors” value in data set [1] is recorded as “potent agonist”. In addition, in data set [3], the “effect on opening of the mitochondrial transition pore (MTP)” value was “can block the opening”. For the same compound, in data set [4], the “effect on oxidative stress produced by MPP+” value was “reduces oxidative stress”. The neuroprotection entry in data set [5] was “neuroprotective”.
